Results from patent US20250049816A1, “COMPOSITIONS COMPRISING THYMOQUINONE AND VITAMIN D” (N.S. Oils Ltd., priority 2021, published 2025).
Entries after “also recorded” stand apart in the source; their conditions may differ.

What was measured:
Type in all cases: cell-based, murine
[1] = system: TNF-α; assay: Western blot, TNF-α levels produced by cultured differentiated 3T3-L1 cells; conditions: 1 μM TQ alone or 10 nM Vitamin D3 alone, vs untreated control (C), FIG. 9
Procedure: (§1) 3T3-L1 murine fibroblasts were obtained from American Type Culture Collection (Rockville, MD, USA). After thawing, cells were resuspended in DMEM, supplemented with 10% heat-inactivated fetal bovine serum (FBS, Invitrogen, Carlsbad, CA, USA) and 1% antibiotic/antimycotic solution (Invitrogen). Culture medium was replaced every 3 days containing 0.25 μM dexamethasone, 10 μg/ml insulin and 0.5 mM 3-isobutyl-1-methylxanthine (Sigma-Aldrich, St. Louis, MO, USA) in DMEM with 10% FBS. Differentiating 3T3-L1 preadipocytes were treated with TQ or Vitamin D3 or combinations thereof for 6 days.
(§2) The cultured adipocytes were homogenized and lysed in RIPA lysis buffer containing protease and phosphatase inhibitors (Complete TM Mini and PhosSTOPTM, Roche Diagnostics, Indianapolis, IN). Protein samples were separated using 10% sodium dodecyl sulfate-polyacrylamide (SDS) gels and transferred to a nitrocellulose membrane (Bio-Rad, Hercules, CA, USA). […] The blots were visualized using an Odyssey Infrared Imaging Scanner (Li-Cor Science Tec) and quantified by densitometric analysis after normalization with β-actin. […]
The levels of TNF-α produced by cultured, differentiated 3T3-L1 cells were measured using specific anti-TNF-α antibodies in a western blot assay, as described hereinabove. […]

[2] = system: PGC-1α; assay: Western blot, PGC-1α expression in cultured adipocytes; conditions: TQ 1 μM, vitamin D3 10 nM, alone or combined; 6 days; relative to β-actin; FIG. 7
Procedure: as §1
as §2, with “IN).” for “IN). Protein samples were separated using 10% sodium dodecyl sulfate-polyacrylamide (SDS) gels and transferred to a nitrocellulose membrane (Bio-Rad, Hercules, CA, USA).”
(§3) The aim of this study was to investigate the effect of a combination of vitamin D3 (10 nM) and TQ (1 μM) on the expression of the UCP1, PGC-1α and Mfn2 genes in cultured adipocytes. […] Following SDS-PAGE separation and western blotting, the three gene products were detected using the appropriate antibodies, and the level of each protein measured, all as described above in the general methods section.

[3] = system: Mfn2; assay: Western blot, Mfn2 expression in cultured adipocytes; conditions: TQ 1 μM, vitamin D3 10 nM, alone or combined; 6 days; relative to β-actin; vs untreated control (C); FIG. 8
Procedure: as §1
as §2, with “IN).” for “IN). Protein samples were separated using 10% sodium dodecyl sulfate-polyacrylamide (SDS) gels and transferred to a nitrocellulose membrane (Bio-Rad, Hercules, CA, USA).”
as §3

[4] = system: UCP1; assay: Western blot, UCP1 expression in cultured adipocytes; conditions: TQ 1 μM, vitamin D3 10 nM, alone or combined; 6 days; relative to β-actin; FIG. 6
Procedure: as §1
as §2, with “IN).” for “IN). Protein samples were separated using 10% sodium dodecyl sulfate-polyacrylamide (SDS) gels and transferred to a nitrocellulose membrane (Bio-Rad, Hercules, CA, USA).”
as §3

[5] = system: differentiated adipocytes (3T3-L1 cells); assay: Oil red O staining, lipid droplet size in differentiated cultured adipocytes; conditions: 6 days, vs untreated control (C)
Procedure: as §1
The size of the lipid droplets in differentiated adipocytes (i.e., 3T3-L1 cells prepared as in the previous section) following the various treatments was measured using oil red O staining. Briefly, differentiated adipocytes were washed with phosphate buffered saline (PBS) and fixed in 3.7% formaldehyde for 10 min. Cells were stained with oil red O solution for 30 min at 25° C. Staining was visualized using bright-field microscopy. Lipid droplet size was then measured using Image Pro (advance Imaging Concept, Inc., Princeton, NJ).
The aim of this study was to investigate the effect of combinations of TQ and vitamin D3 on the accumulation of lipids in cultured adipocytes. For the purpose of this investigation, 3T3-L1 murine fibroblasts were grown and differentiated as described hereinabove. The differentiated cultures were then treated for six days with TO, vitamin D3 or combinations thereof. Following this treatment, the size of the accumulated lipid droplets within the cultured cells were assessed using the oil red O staining method described hereinabove.

Row | Structure (SMILES) | decrease in TNF-α expression [1] | PGC-1α expression [2] | Mfn2 expression [3] | UCP1 expression [4] | average lipid droplet size ([5]; TQ 1 μM, FIG. 1) | average lipid droplet size ([5]; TQ 2 μM, FIG. 1) | average lipid droplet size ([5]; TQ 4 μM, FIG. 1) | average lipid droplet size ([5]; Vitamin D3 1 nM, FIG. 2) | average lipid droplet size ([5]; Vitamin D3 10 nm, FIG. 2) | average lipid droplet size ([5]; Vitamin D3 100 nm, FIG. 2)
1 | CC1=CC(=O)C(C(C)C)=CC1=O [TQ, thymoquinone] | approximately 50% | statistically significant elevation of PGC-1α expression | statistically significant elevation of Mfn2 expression | statistically significant elevation of UCP1 expression | statistically significant reduction in lipid droplet size | statistically significant reduction in lipid droplet size; also recorded: greater degree of size reduction than that caused by the 1 μM dose; also recorded: greatest effect | statistically significant reduction in lipid droplet size; also recorded: did not cause any further enhancement of this effect; also recorded: greatest effect | – | – | –
2 | C=C1CC[C@H](O)C/C1=C/C=C1\CCC[C@]2(C)[C@@H]([C@H](C)CCCC(C)C)CC[C@@H]12 [Vitamin D3, cholecalciferol, reference compound] | approximately 50% | statistically significant elevation of PGC-1α expression | statistically significant elevation of Mfn2 expression | statistically significant elevation of UCP1 expression | – | – | – | slight reduction in lipid droplet size, this reduction was not statistically significant | statistically significant reduction in lipid droplet size | statistically significant reduction in lipid droplet size
